Results from patent US5278045A, “Method and compositions to screen compounds for enhancement of the cholinergic, dopaminergic and serotonergic function” (Du Pont Merck Pharmaceutical Company, priority 1990, dated 1994).

Tests used:
DuP 996 binding protein = assay: Radioreceptor screening assay (displacement of tritiated DuP 996); design: species or system rat; conditions: inhibition of binding of 10 nM tritiated DuP 996, pH 7.4, 25° C., 60 minutes
Protocol: Male Sprague-Dawley rats (Charles River Breeding Laboratories) at 200-250 g were euthanatized by decapitation. Rat brain regions were dissected according to Heffner et al., Pharmacol. Biochem. Behav., 13, 453 (1980). Brain membranes were prepared by the method of Tam, Proc. Natl. Acad. Sci. USA, 80, 6703 (1983). The brain tissues were homogenized (20 sec) in 10 vol (wt/vol) of ice-cold 0.32M sucrose with a Brinkman Polytron (setting 8). The homogenate was centrifuged at 920×g for 10 min at 4° C. The supernatant was centrifuged at 47,000×g for 20 min. The resulting membrane pellet was resuspended in 10 vol (original wt/vol) of 50 mM Tris-HCl (pH 7.4) and incubated at 37° C. for 30 min to degrade and dissociate bound endogenous ligands. The membranes were then centrifuged at 47,000×g for 20 min and resuspended in 50 mM Tris-HCl.
Compounds to be screened were incubated with brain membranes. (1-2 mg protein) in 50 mM Tris-HCl buffer, pH 7.4, for 10 minutes in 25° C. Then 10 nM tritiated DuP 996 or its active structural analogs were added and incubated at 25° C. for 60 minutes. The samples were filtered on Whatman GF/B glass filters which had been soaked in 0.2% polyethylenimine and washed 3 times each with 5 ml of ice-cold Tris buffer. Nonspecific binding was determined by performing binding in the presence of 10 μM DuP 996. The control represents specific binding in the absence of compounds to be screened. Screened compounds which inhibited the specific binding of tritiated DuP 996 or analogs to its binding protein should be active in binding to the same protein. This is illustrated further in Example 4, Part B.

ACh release = assay: Neurotransmitter release assay: stimulated ACh release from brain slices; design: species or system rat; conditions: concentration to enhance stimulated release of ACh by 100% (2-fold) over control, from dose response curves
Protocol: Male Wistar rats weighing 175-200 g were euthanatized and the brains were dissected out immediately. Slices (0.3 mm thick) from the parietal cortex were prepared manually by using a recessed Lucite® guide. Slices (1.5 mm thick) from the hippocampus and the caudate nucleus were prepared by using a slotted brain holder. All slices were subsequently cut into 0.25×0.25 mm squares with a McIlwain tissue chopper.
Labeling of transmitter stores in slices was prepared by the following methods. For ACh release, slices (approximately 100 mg wet weight) were incubated in 10 ml Krebs-Ringer (KR) medium containing (mM): NaCl(116), KCl(3), CaCl2 (1.3), MgCl2 (1.2), KH2 PO4 (1.2), Na2 SO4 (1.2), NaHCO3 (25) and glucose(11), to which 10 μCi ^3 H-choline (specific activity approx. 80 Ci/mmol: NEN) and 10 nmol unlabeled choline had been added to give a final concentration of 10^-6 M. Incubation was carried out for 30 min at 37° C. under a steady flow of 95% O2 /5% CO2. Under these conditions, part of the radioactive choline taken up is converted into radioactive ACh by cholinergic nerve endings, stored in synaptic vesicles, and released upon depolarization by high-K^+ -containing medium [Molenaar et al., 1973a]. For dopamine (DA), serotonin (5-HT), and norepinephrine (NE) release, slices (approximately 100 mg wet weight) were incubated in KR medium containing 0.01 mM nialamide at 37° C. under a steady flow of 95% O2 /5% CO2. The MAO-inhibitor nialamide was added to the medium in order to inhibit metabolism to the monoamines. Incubation was for 30 min in 10 ml of KR medium to which 10 μCi ^3 H-dopamine, ^3 H-norepinephrine, or ^3 H-5-hydroxytryptamine (specific activity 30, 45, and 78 Ci/mmol, respectively: all from NEN) had been added.
Separate experiments were performed for the release of each neurotransmitter. After labeling of the transmitter stores, the slices were washed three times with non-radioactive KR medium and transferred to a superfusion apparatus to measure the drug effects on transmitter release [Schoemaker et al., Psychopharmacology 74, 137 (1981)]. The superfusion apparatus consisted of 10 thermo-jacketed glass columns of 5 mm diameter which were provided with GF/F glass fiber filters to support the brain slices (approximately 10 mg tissue/column). Superfusion was carried out with KR medium at a rate of 0.3 ml/min. For ACh release, 10^-5 M hemicholinium-3 was added to the medium to prevent the uptake of choline formed during superfusion from phospholipids and released ACh, so that it could not be subsequently converted into newly synthesized ACh, which would be released in preference to the pre-formed, labeled ACh. The medium was delivered by a 25-channel peristaltic pump (Ismatec; Brinkman) and maintained at 37° C. by a thermostated stainless-steel heating coil before entering the superfusion column. Each column was provided with a four-way slider valve (Beckman Instruments) which allowed rapid change of low-to-high-K^+ -KR-medium and with two 10-channel, 3-way valves which were used to change form drug-free to drug-containing low- and high-K^+ -KR media.
After 15 min washout of non-specifically bound radioactivity during superfusion, the collection of fractions of 4 min (1.2 ml) each was started. After 3×4 min, the KR medium was changed to a KR medium with 25 mM KCl (ACh, 5-HT release) or 12.5 mM KCl (DA release) (high K^+ -KR medium; S1). Depolarization-induced stimulation of release by high-K^+ -KR medium was then substituted by drug- or vehicle-containing low- and high-K^+ -KR medium and superfusion continued for 3×4 min with low-K^+ -KR medium, for 1×4 min with high-K^+ -KR medium (S2), and for 2×4 min with low-K^+ -KR medium.
Compounds were added to the medium by 100-fold dilution of appropriate stock solutions (in 0.9% NaCl/H2 O) with either low- or high-K^+ -KR medium.
All superfusion fractions were collected in liquid scintillation counting vials.

Row | Compound | IC50 (DuP 996 binding protein) [µM] | ACh Release EC100 (ACh release)
1 | Cc1nc(CC2(Cc3csc(C)n3)C(=O)N(c3ccccc3)c3ccccc32)cs1 [Compound 30, 3,3-Bis(2-methyl-4-thiazolylmethyl)-1,3-dihydro-1-phenyl-2H-indol-2-one] | 1200 | 980,000 nM
2 | O=C1N(c2ccccc2)c2ccccc2C1(c1cncnc1)c1cncnc1 [Compound 24, 3,3-Bis(5-pyrimidinyl)-1,3-dihydro-1-phenyl-2H-indol-2-one] | 75.9 | 980,000 nM
3 | CN1C(=O)C(Cc2ccncc2)(Cc2ccncc2)c2ccccc21 [Compound 22, 1,3-Dihydro-1-methyl-3-3-bis(4-pyridinylmethyl)-2-H-indol-2-one] | 15.9 | 17,000 nM
4 | O=C1N(c2ccccc2)c2ccccc2C1(Cc1ccnnc1)Cc1ccnnc1 [Compound 28, 3,3-Bis(4-pyridazinyl-methyl)-1,3-dihydro-1-phenyl-2H-indol-2-one] | 1000 | 1,000,000 nM
5 | O=C1N(c2ccccc2)c2ccccc2C1(Cc1cnn(Cc2ccccc2)c1)Cc1cnn(Cc2ccccc2)c1 [Compound 27, 3,3-Bis[1-(phenylmethyl)-1H-pyrazol-4-ylmethyl]-1,3 dihydro-1-phenyl-2H-indol-2-one] | 990 | 1,300,000 nM
6 | O=C1N(Cc2ccccc2)c2ccccc2C1(Cc1ccncc1)Cc1ccncc1 [Compound 19, 3,3-Bis(4-pyridinyl-methyl)-1,3-dihydro-1-(phenylmethyl)-2H-indol-2-one] | 1.17 | 4,500 nM
7 | CN1CCC(CC2(CC3CCN(C)CC3)C(=O)N(c3ccccc3)c3ccccc32)CC1 [Compound 25, 3,3-Bis(1-methyl-4-piperidinylmethyl)-1,3-dihydro-1-phenyl-2H-indol-2-one] | 970 | 1,200,000 nM
8 | O=C1C(C(O)(c2ccccn2)c2ccccn2)c2ccccc2N1c1ccccc1 (centres unmarked) [Compound 26, 3[Bis(2-pyridinyl)-(hydroxy)methyl]-1,3-dihydro-1-phenyl-2H-indol-2-one] | 980 | 1,000,000 nM
9 | O=C1C(Cc2cccnc2)c2ccccc2N1c1ccccc1 (centres unmarked) [Compound 21, 1,3-Dihydro-1-phenyl-3-(3-pyridinylmethyl)-2H-indol-2-one] | 6.03 | 12,000 nM
10 | O=C1N(c2ccccc2)c2ccccc2C1(Cc1cnccn1)Cc1cnccn1 [Compound 20, 3,3-Bis(2-pyrazinylmethyl)-1-phenyl-1H-indol-2(3H)-one] | 4.2 | 11,000 nM
11 | c1ccc(CC2(Cc3ccccn3)c3ccccc3-c3ccccc32)nc1 [Compound 29, 2-[9-(2-pyridinylmethyl)-9H-fluoren-9-ylmethyl]-pyridine] | 1100 | 990,000 nM

The next compounds have a lower IC50 (DuP 996 binding protein) than those just listed; values first:

Row | IC50 (DuP 996 binding protein) [µM] | Compound | ACh Release EC100 (ACh release)
12 | 1.04 | O=C1N(c2ccccc2)c2ccccc2C1(Cc1ccncc1)CC1CCCO1 (centres unmarked) [Compound 18, 1,3-Dihydro-1-phenyl-3-(4-pyridinylmethyl)-3-(tetrahydro-2-furanyl-methyl)-2H-indol-2-one] | 34,000 nM
13 | 0.57 | O=C1N(c2ccccc2)c2ccccc2C1(Cc1ccncn1)Cc1ccncn1 [Compound 16, 3,3-Bis(4-pyrimidinylmethyl)-1-phenyl-1H-indol-2(3H)-one] | 3,500 nM
14 | 0.558 | O=C1N2CCCc3cccc(c32)C1(Cc1ccncc1)Cc1ccncc1 [Compound 15, 1,1-Bis(4-pyridinylmethyl)5,6-dihydro-4H-pyrollo(3,2,1-IJ)quinolin-2(1H)-one] | 14,000 nM
15 | 0.198 | Cc1ccc2c(c1)N(c1ccccc1)C(=O)C2(Cc1ccncc1)Cc1ccncc1 [Compound 14, 3,3-Bis(4-pyridinylmethyl)-1,3-dihydro-6-methyl-1-phenyl-2H-indol-2-one] | 4,800 nM
16 | 0.179 | O=C1N(c2ccccc2)c2ccccc2C1(Cc1ccncc1)Cc1ccncn1 (centres unmarked) [Compound 13, 1,3-Dihydro-1-phenyl-3-(4-pyridinylmethyl)-3(4-pyrimidinylmethyl)-2H-indol-2-one] | 1,500 nM
17 | 0.168 | c1cnc2c(c1)C(Cc1ccncc1)(Cc1ccncc1)c1cccnc1-2 [Compound 12, 5,5-Bis(4-pyridinyl-methyl)-5H-cyclopenta(2,1-B:3,4-B')-dipyridine] | 1,400 nM
18 | 0.12 | C=C1c2cccc3cccc(c23)C1(Cc1ccncc1)Cc1ccncc1 [Compound 11, 4-[1,2-Dihydro-2-methyl-ene-1-(4-pyridinylmethyl)-1-acenaphthylen-1-yl-methyl]-pyridine] | 3,300 nM
19 | 0.062 | c1ccc2c(c1)-c1ccccc1C2(Cc1ccncc1)Cc1ccncc1 [Compound 9, 9,9-Bis(4-pyridinylmethyl)-9H-fluorene] | 340 nM
20 | 0.051 | c1ccc2c(c1)Sc1ccccc1C2(Cc1ccncc1)Cc1ccncc1 [Compound 6, 4,4'-[9H-Thioxanthen-9,9-diylbis(methylene)]pryidine] | 1,500 nM
21 | 0.046 | O=C1N2c3ccccc3CCc3cccc(c32)C1(Cc1ccncc1)Cc1ccncc1 [Compound 5, 2,2-Bis(4-pyridinylmethyl)-6,7-dihydro-indole(1,7-AB)(1)-benzapin-1(2H)-one] | 2,500 nM
22 | 0.034 | O=C1c2ccccc2C(Cc2ccncc2)(Cc2ccncc2)c2ccccc21 [Compound 4, 10,10-Bis(4-pyridinylmethyl)-9(10H)-anthracenone] | 90 nM
23 | 0.032 | O=C1c2c(Cl)cccc2C(Cc2ccncc2)(Cc2ccncc2)c2cccc(Cl)c21 [Compound 3, 10,10-Bis-(4-pyridinylmethyl)-1,8-dichloro-9(10H)-anthracenone] | 170 nM
24 | 0.03 | Nc1ccc2c(c1)C(Cc1ccncc1)(Cc1ccncc1)c1ccccc1-2 [Compound 2, 9,9-Bis-(4-pyridinylmethyl)-9H-fluorene-2-amine] | 140 nM
25 | 0.02 | CC(=O)c1ccc2c(c1)C(Cc1ccncc1)(Cc1ccncc1)c1ccccc1-2 [Compound 1, 1-[9,9-Bis(4-pyridinylmethyl)-9H-fluoren-2-yl]-ethanone] | 170 nM
